Source: patent US5958966A, “Treatment of aberrant cellular states with biomodulators” (University of New Mexico, priority 1995, dated 1999)
“Also recorded” adds a separate entry of the source.

Columns and labels:
canine glioma (CG) cells = experiment: chromium-release cell-mediated lympholysis (CML) vs. CG tumor in a dog; format: in vivo; settings: for CG-specific CML in words: dog
Description: Cellular immune response reflected the results reported in III, 1 above. […] This also is in the absence of CG antigen exposure. […] Thus, both cellular and humoral immunity appear to be modulatable in the absence of antigen by the compounds of the instant invention.

[1] = tested on: human peripheral blood leukocytes (HPBL); experiment: stimulation / inhibition of IgG production in HPBL; format: cell-based; settings: HPBL
Procedure: Human peripheral blood leukocytes were cultured in a standard tissue culture medium. Aliquots of these cultured cells (1,000,000 cells/ml medium) were cultured for 6 hours, and the specified amount of Formula II compound was added; the cells were then cultured for an additional 90 hours. Sheep red blood cells (SRBC) conditioned with class-specific (IpG) goat anti-human antiserum (1:400) for 2 hours; then guinea pig complement (2%) for 2 hours were conjugated to Protein A as described in detail in Radioimmunoimaging and Radioimmunotherapy, Eds. S. W. Burchiel and B. A. Rhodes, Elsevier Science Publishing; New York, 1983, pp. 125-127, incorporated herein by reference.

canine glioma cells = experiment: canine glioma tumor inhibition in nude rats (Formula II compound); format: in vivo, nude rat
Procedure: Fifty four nude rats (Harlan) were injected in the right flank with 5×10^6 canine glioma cells. Animals at the time of injection were between 52 and 63 days old and weighed approximately 200 g. The rats were divided into 7 groups, each group having a total number of 7 rats except for the control group, which totalled 12 animals. Compound IIc' was administered to the experimental animals at one of the following doses for each experimental group: 100 μg/kg, 10 μg/kg, 1 μg/kg, 0.1 μg/kg, 0.01 μg/kg and 0.001 μg/kg (phosphate buffer saline, M, W, F, I.P.). The control animals were injected with PBS (phosphate buffered saline) only. The volume of each injection was 100 μl. The injections of drug were simultaneously begun with injection of tumor cells. The animals were injected with the appropriate dosage of drug (1 ng/kg to […]) by I. P. injection and tumor length, width and depth were measured using caliphers each Monday, Wednesday and Friday (M, W, F) morning for approximately 9 weeks. Each point on the graphs represents the total of all rats for each group. […] The data were normalized for the greater number of control animals by multiplying the total tumor volume for the control animals by 7/12.

anti-CG IgG antibodies = experiment: tumor-specific (anti-CG) antibody production in a dog; format: in vivo

CC(C)OC(=O)C[C@H](O)C[C@@H](O)/C=C/c1c(C(C)C)nc(-c2ccccc2)n1-c1ccc(F)cc1 [Compound IIc'] was tested, and the “slope M of linear regression of toxicity” value (canine glioma (CG) cells; December 14, 1987) was 0.05, the “slope M of linear regression of toxicity” value (canine glioma (CG) cells; February 9, 1988) was 0.35 and the “slope M of linear regression of toxicity” value (canine glioma (CG) cells; February 17, 1988) was 0.75. The “slope M of linear regression of toxicity” value (canine glioma (CG) cells; March 31, 1988) was 0.05, the “CG-specific CML in words” value (canine glioma (CG) cells) was “significant increase in CML; also recorded: large increase in the CML reactivity; also recorded: CML reactivity again returned to baseline” and the “CG-specific CML in words” value (canine glioma (CG) cells; listed as IIIc') was “only baseline levels of CG-specific CML were present”. The “IgG production in words” value [1] was “stimulated IgG production”, the “Inhibitory Concentration (nonspecific IgG production below normal)” value [1] was “none found” and the “optimal dose in vitro” value ([1]; immune stimulation) was 100 pM. For the same molecule, the “cytostatic activity at other doses” value (canine glioma cells; 10 and 100 μg/kg or 1 ng/kg) was “Little or no cytostatic activity”, the “most effective dosage for inhibition” value (canine glioma cells; nude rats, I.P., M, W, F) was 100 ng/kg and the “CG-specific antibody titer in words” value (anti-CG IgG antibodies) was “titers of antibody increased over the control antibody titer significantly; also recorded: CG-specific antibody (IgG) production increased significantly; also recorded: rapidly (within a few days) reverted to baseline control levels”.
